Reference: the supplement of paper PMC10307832

Experiments:
Assay in all cases: relative viability (nuclei count vs DMSO), 5 days (fraction); higher = more cells survive
[1] = compound: C1COCCN1C2=NC(=NC3=C2OC4=C3C=CC=N4)C5=CC(=CC=C5)NC(=O)C6=CN=C(C=C6)N + Cc1cc(Nc2cc(N3CCN(C)CC3)nc(Sc3ccc(NC(=O)C4CC4)cc3)n2)n[nH]1 [Tozasertib] (partner 0.1 µM)
Procedure, shortened: (§1)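 Relative viability was taken as the ratio of nuclei in treated wells to nuclei in vehicle wells. Lung cancer cell lines in 1536-well plates received compounds by pin tool one day after seeding, either one drug alone or a fixed anchor-drug dose plus five library-drug doses (not always all listed) in √10 steps. Nuclei were counted on 4× images after 5 days of treatment, and values are medians of duplicate plates.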

[2] = compound: C1COCCN1C2=NC(=NC3=C2OC4=C3C=CC=N4)C5=CC(=CC=C5)NC(=O)C6=CN=C(C=C6)N + O=C(c1cc(Cc2n[nH]c(=O)c3ccccc23)ccc1F)N1CCN(C(=O)C2CC2)CC1 [Olaparib] (partner 8 µM)
Procedure, shortened: as §1

SGI-1776 + Linsitinib = compound: CN1CCC(CNc2ccc3ncc(-c4cccc(OC(F)(F)F)c4)n3n2)CC1 [SGI-1776] + C[C@]1(O)C[C@@H](c2nc(-c3ccc4ccc(-c5ccccc5)nc4c3)c3c(N)nccn32)C1 [Linsitinib] (partner 1 µM)
Procedure, shortened: as §1

SGI-1776 + Phenformin = compound: CN1CCC(CNc2ccc3ncc(-c4cccc(OC(F)(F)F)c4)n3n2)CC1 [SGI-1776] + N=C(N)NC(=N)NCCc1ccccc1 [Phenformin] (partner 250 µM)
Procedure, shortened: as §1

Row | Cell Line | relative viability ([1]; first compound 0.02 µM) | relative viability ([1]; first compound 0.06325 µM) | relative viability ([1]; first compound 0.2 µM) | relative viability ([1]; first compound 0.6325 µM) | relative viability ([1]; first compound 2 µM) | relative viability ([2]; first compound 0.02 µM) | relative viability ([2]; first compound 0.06325 µM) | relative viability ([2]; first compound 0.2 µM) | relative viability ([2]; first compound 0.6325 µM) | relative viability ([2]; first compound 2 µM) | relative viability (SGI-1776 + Linsitinib; first compound 0.08 µM) | relative viability (SGI-1776 + Linsitinib; first compound 0.8 µM) | relative viability (SGI-1776 + Linsitinib; first compound 2.53 µM) | relative viability (SGI-1776 + Linsitinib; first compound 8 µM) | relative viability (SGI-1776 + Phenformin; first compound 0.08 µM) | relative viability (SGI-1776 + Phenformin; first compound 0.8 µM) | relative viability (SGI-1776 + Phenformin; first compound 2.53 µM) | relative viability (SGI-1776 + Phenformin; first compound 8 µM)
1 | SW 1573 | 0.207 | 0.159 | 0.175 | 0.188 | 0.152 | 0.488 | 0.508 | 0.439 | 0.459 | 0.36 | 0.94 | 0.777 | 0.765 | 0.741 | 0.381 | 0.31 | 0.356 | 0.275
2 | LU99A | 0.277 | 0.276 | 0.231 | 0.21 | 0.173 | 0.264 | 0.27 | 0.226 | 0.262 | 0.222 | 0.573 | 0.54 | 0.545 | 0.432 | 0.816 | 0.712 | 0.915 | 0.783
3 | NCI-H1299 | – | – | – | – | – | 0.928 | 1.04 | 0.993 | 0.962 | 0.754 | 1.02 | 0.972 | 0.966 | 0.921 | – | – | – | –
4 | NCI-H1355 | 0.628 | 0.602 | 0.515 | 0.36 | 0.352 | 0.736 | 0.886 | 0.781 | 0.757 | 0.572 | 0.92 | 0.899 | 0.792 | 0.729 | 0.451 | 0.423 | 0.401 | 0.3
5 | HARA | 0.0879 | 0.0809 | 0.112 | 0.0875 | 0.125 | 0.845 | 0.727 | 1.09 | 0.764 | 0.75 | 1.11 | 0.921 | 0.909 | 0.945 | 0.532 | 0.337 | 0.354 | 0.318
6 | LXF-289 | 0.177 | 0.181 | 0.156 | 0.145 | 0.119 | 1.13 | 1.18 | 1.17 | 1.06 | 0.803 | 0.992 | 0.98 | 1.01 | 0.97 | 0.54 | 0.534 | 0.496 | 0.486
7 | 201T | 0.959 | 1.04 | 0.915 | 0.913 | 0.452 | 0.854 | 0.879 | 0.837 | 0.923 | 0.458 | 1.05 | 1.01 | 0.968 | 0.87 | 0.442 | 0.461 | 0.415 | 0.471
8 | NCI-H1703 | – | – | – | – | – | 0.335 | 0.447 | 0.372 | 0.308 | 0.222 | 0.662 | 0.979 | 0.433 | 0.13 | – | – | – | –
9 | ChaGo-K-1 | 0.217 | 0.23 | 0.197 | 0.228 | 0.224 | 0.435 | 0.402 | 0.401 | 0.409 | 0.331 | – | – | – | – | 0.491 | 0.526 | 0.458 | 0.408
10 | NCI-H2170 | 0.742 | 0.828 | 0.633 | 0.703 | 0.445 | 0.736 | 0.652 | 0.528 | 0.624 | 0.41 | – | – | – | – | 0.388 | 0.382 | 0.345 | 0.307
11 | A549 | – | – | – | – | – | 0.39 | 0.353 | 0.311 | 0.243 | 0.239 | 0.672 | 0.574 | 0.518 | 0.48 | 0.122 | 0.148 | 0.11 | 0.155
12 | Calu-6 | – | – | – | – | – | 0.685 | 0.68 | 0.604 | 0.528 | 0.467 | 1.07 | 0.986 | 0.997 | 0.818 | – | – | – | –
13 | NCI-H1648 | 0.468 | 0.48 | 0.473 | – | 0.617 | 0.83 | 0.8 | 0.666 | 0.566 | 1.18 | – | – | – | – | – | – | – | –
14 | NCI-H1623 | 0.376 | 0.457 | 0.411 | 0.432 | 0.461 | – | – | – | – | – | – | – | – | – | 0.611 | 0.571 | 0.556 | 0.626
15 | NCI-H2342 | 0.505 | 0.483 | 0.458 | 0.405 | 0.451 | 0.472 | 0.46 | 0.402 | 0.391 | 0.4 | – | – | – | – | 0.696 | 0.669 | 0.532 | 0.501
16 | NCI-H1792 | – | – | – | – | – | 0.826 | 0.598 | 0.303 | 0.235 | 0.219 | 0.479 | 0.543 | 0.503 | 0.647 | 0.335 | 0.257 | 0.135 | 0.257
17 | NCI-H1563 | – | – | – | – | – | – | – | – | – | – | 1.14 | 1.19 | 1.16 | 1.08 | 0.694 | 0.595 | 0.63 | 0.548
18 | NCI-H1650 | 0.472 | 0.425 | 0.328 | 0.338 | 0.255 | 0.72 | 0.903 | 0.757 | 0.88 | 0.591 | – | – | – | – | 0.441 | 0.368 | 0.248 | 0.129
19 | NCI-H522 | 0.491 | 0.497 | 0.472 | 0.374 | 0.541 | 0.584 | 0.649 | 0.63 | 0.554 | 0.525 | – | – | – | – | 0.708 | 0.676 | 0.698 | 0.563
20 | IA-LM | – | – | – | – | – | 0.858 | 0.826 | 0.689 | 0.616 | 0.394 | 0.732 | 0.603 | 0.593 | 0.692 | – | – | – | –
21 | SW 900 | 0.519 | 0.762 | 0.371 | 0.373 | 0.279 | 0.981 | 0.945 | 0.743 | 0.804 | 0.655 | – | – | – | – | 0.731 | 0.563 | 0.538 | 0.348
22 | EBC-1 | – | – | – | – | – | 0.7 | 0.77 | 0.582 | 0.668 | 0.356 | 0.969 | 0.85 | 1.02 | 0.675 | – | – | – | –
